# Test results published in publication PMC9745799, “Polymyxin Stereochemistry and Its Role in Antibacterial Activity and Outer Membrane Disruption” (ACS Infectious Diseases, 2022).
# Values joined by “and” are separate entries in the source; they are usually repeats but may differ in a detail not shown here. Equal values may be shown once. Positions of bridges follow the written chain, without caps; N, C: chain ends. Non-standard residues stand in square brackets, D forms with d. Residues, ends and D or L forms follow the SMILES beside them. *: point of attachment. dDab = NCC[C@@H](N)C(=O)O; Heptanoyl = CCCCCCC(=O)*
# Legend:
# E. coli JW3594 (ΔwaaD) = assay type: cell-based; details: truncated LPS, CLSI microbroth dilution, CAMHB, 18 h, 37 °C, triplicate
# Description: (§1) MICs of compounds were determined following CLSI guidelines using the microbroth dilution method in polypropylene plates. Selected Gram-negative bacterial strains (see Table S2 for strain sources) were taken from glycerol stocks and grown overnight on blood agar. Individual colonies were selected and grown in Tryptic Soy Broth (TSB) to an OD600 of 0.5. Compounds were diluted in Mueller Hinton Broth (MHB) supplemented with Mg^2+ and Ca^2+ at final concentrations of 12 and 20 mg/L, respectively (CAMHB). 50 μL was used for each well, and compounds were assessed in triplicates. Bacterial culture was diluted in CAMHB to 10^6 CFU/mL, yielding 5 × 10^5 CFU/mL upon addition of 50 μL of culture to 50 μL of compound solution. Positive and negative (sterility) controls were present on each plate. Plates were sealed with a semipermeable membrane and incubated for 22 h (A. baumannii) or 18 h (other strains) under shaking at 37 °C.
# A. baumannii ATCC 19606 = assay type: cell-based; details: A. baumannii ATCC 19606
# Description: as §1
# P. aeruginosa ATCC 27853 = assay type: cell-based; details: P. aeruginosa ATCC 27853; CLSI microbroth dilution, CAMHB, 18 h, 37 °C, triplicate
# Description: as §1
# E. coli ATCC 25922 = assay type: cell-based; details: E. coli ATCC 25922
# Description: as §1
# P. aeruginosa NRZ03961 = assay type: cell-based; details: P. aeruginosa NRZ03961; CLSI microbroth dilution, CAMHB, 18 h, 37 °C, triplicate
# Description: as §1
# [1] = tested on: polymyxin-resistant (mcr-1 positive) E. coli; experiment: microbe, parasite or virus in culture; assay type: cell-based; details: E. coli mcr-1, checkerboard
# Description: (§2) Selected Gram-negative bacterial strains were taken from glycerol stocks and grown overnight on blood agar. A single colony was inoculated in TSB broth at 37 °C until an optical density of 0.5 at 600 nm (OD600) was reached. The bacterial suspension was diluted in freshly prepared CAMHB to 10^6 CFU/mL. Compounds were diluted along the plate, using 25 μL of CAMHB for each dilution. Antibiotic concentrations were prepared separately in a multiwell reservoir, including a control without antibiotic. Of each antibiotic stock, 25 μL was added to three columns to obtain triplicates for every condition. To each 50 μL containing well was then added 50 μL of the 10^6 CFU/mL bacterial suspension, and the plates were sealed with breathable seals. After incubation for 18 h at 37 °C while shaking, the seals were removed and the density of the bacterial suspensions was measured at 600 nm (OD600) using a Tecan Spark plate reader. The OD600 values were transformed to a 2D gradient with the negative control as the minimum and the positive control as the maximum. The FICI was calculated using the following equation: [drawing 1] with MSCant and MSCcomp indicating the optimal synergistic concentration of antibiotic and compound and MICant and MICcomp, the corresponding MICs of the individual compounds. An FICI ≤ 0.5 indicates synergy.[48]
# [2] = tested on: polymyxin-sensitive E. coli ATCC 25922; experiment: microbe, parasite or virus in culture; assay type: cell-based; details: E. coli ATCC 25922
# Description: as §2
# [3] = tested on: LPS from E. coli (O55:B5); experiment: Isothermal titration calorimetry (ITC), LPS binding; details: compound (1 mM) into LPS (20 µM), 20 mM HEPES pH 7, 37 °C, mean and SD of three experiments
# Description: Stock solutions of LPS (10 mg/mL, 0.5 mM) were prepared in 20 mM HEPES at pH 7 by suspension, sonication, and temperature cycling between 4 and 60 °C and stored overnight prior to use. LPS from E. coli (O55:B5) was used. Lipopeptide solutions (1 mM in 20 mM HEPES, pH 7) were titrated into a suspension of LPS (0.020 mM) in the same buffer. Control titrations included the titration of peptide into buffer and buffer into the LPS suspension to determine the corresponding heat of dilution. All binding experiments were performed using a MicroCal PEAQ-ITC Automated microcalorimeter (Malvern Panalytical Ltd., Malvern, UK). The samples were equilibrated to 37 °C prior to measurement. The titrations were conducted at 37 °C under constant stirring at 750 rpm. Each experiment consisted of an initial injection of 0.3 μL followed by 25 separate injections of 1.5 μL into the sample cell of 200 μL. The time between each injection was 180 s, and the measurements were performed with the reference power set at 5 μcal s^–1 and the feedback mode set at “low”. For all calculations performed, an estimated molecular weight of 20 kDa for LPS was applied. The calorimetric data thus obtained were analyzed using MicroCal PEAQ-ITC Analysis Software Version 1.20 (Malvern Panalytical Ltd., Malvern, UK), where the integrated heat signal is corrected for the heat of dilution of the titrant.
# [4] = tested on: polymyxin-resistant, mcr-1 positive E. coli; experiment: NPN uptake assay (outer membrane disruption); assay type: cell-based; details: E. coli mcr-1 positive; NPN fluorescence after 1 h at RT, highest concentration tested 32 μg/mL, triplicates; result in words
# Description: (§3) Bacteria were taken from glycerol stocks and grown in TSB overnight. Cultures were diluted either 50 or 100 times in Lysogeny Broth (LB) and grown at 37 °C to an OD600 of 0.5. Test compounds were prepared in HEPES buffer (5 mM, pH 7.2 + 20 mM glucose) and serially diluted (25 μL per well) on 1/2 the area of black 96-well plates with a transparent bottom. N-Phenyl-1-naphthylamine (NPN) was dissolved in acetone (0.5 mM) and diluted to 40 μM in HEPES buffer (5 mM, pH 7.2 + 20 mM glucose). 25 μL of the NPN solution was added to each well. The bacterial suspension was spin down (1000g, 10 min), and the remaining cell pellet was resuspended in half the original volume of HEPES buffer (5 mM, pH 7.2 + 20 mM glucose). 50 μL of bacterial suspension was added to each well. NPN fluorescence was measured after 1 h of incubation at RT with λex 355 ± 20 nm and λem 420 ± 20 nm. The measured fluorescence signal was corrected for NPN fluorescence in the absence of compounds (bacteria in buffer + NPN) and presented as relative fluorescence units (RFUs).
# [5] = tested on: E. coli BW25113 (rough LPS); experiment: NPN uptake assay (outer membrane disruption); assay type: cell-based; details: NPN fluorescence after 1 h at RT, 5 mM HEPES pH 7.2 + 20 mM glucose, triplicates, result in words
# Description: as §3
# [6] = tested on: E. coli ATCC 25922 (smooth LPS); experiment: NPN uptake assay (outer membrane disruption); assay type: cell-based; details: NPN fluorescence after 1 h at RT, 5 mM HEPES pH 7.2 + 20 mM glucose, triplicates, result in words
# Description: as §3
structure (smiles),measurement,setting,value
CCCCCCC(=O)N[C@H](CCN)C(=O)N[C@@H](C(=O)N[C@H](CCN)C(=O)N[C@@H]1CCNC(=O)[C@@H]([C@H](C)O)NC(=O)[C@@H](CCN)NC(=O)[C@@H](CCN)NC(=O)[C@@H](CC(C)C)NC(=O)[C@H](Cc2ccccc2)NC(=O)[C@@H](CCN)NC1=O)[C@H](C)O [ent-PmxB4] (Heptanoyl-[dDab][dT][dDab][dDab][dDab]F[dL][dDab][dDab][dT]; lactam 4-C),MIC,E. coli JW3594 (ΔwaaD),128 mg/L
same,MIC in presence of PMBN,A. baumannii ATCC 19606; + PMBN (8 ug/mL),> 128 mg/L
same,MIC in presence of SPR741,A. baumannii ATCC 19606; + SPR741 (8 ug/mL),> 128 mg/L
same,MIC,"A. baumannii ATCC 19606; CLSI microbroth dilution, CAMHB, 22 h, 37 °C, triplicate",>128 mg/L
same,MIC,P. aeruginosa ATCC 27853,>128 mg/L
same,MIC in presence of PMBN,E. coli ATCC 25922; + PMBN (8 ug/mL),128 mg/L
same,MIC in presence of SPR741,E. coli ATCC 25922; + SPR741 (8 ug/mL),128 mg/L
same,MIC,P. aeruginosa NRZ03961,>128 mg/L
same,MIC alone,[1]; substance alone,128 mg/L
same,FICI,"[1]; combination with rifampicin, CAMHB, 18 h, 37 °C, OD600, FICI ≤ 0.5 indicates synergy",0.19 and 0.188
same,MIC alone,"[2]; checkerboard, substance alone",128 mg/L
same,MIC in combination,"[2]; compound in combination with rifampicin, optimal synergistic concentration",8 mg/L
same,"ΔΔH, maximum enthalpy observed after subtraction of dilution control",[3],-14.58 kJ/mol
same,OM disruption (NPN uptake),[4],full NPN uptake albeit at higher concentrations
same,OM disruption (NPN uptake),[5],moderate OM disruption
same,OM disruption (NPN uptake),[6],moderate OM disruption
